Measurements published in PubChem BioAssay AID720588 (Broad Institute, 2013).
Values joined by “and” are separate entries in the source; they are usually repeats but may differ in a detail not shown here. Identical values can stand only once.

These compounds were tested on HEK293T viability, CellTiter-Glo ATP luminescence, 72 h (assay: ATP-based viability loss in HEK293T cells – cell-based, CellTiter-Glo luminescence, cherry-pick, set 3, cytotoxicity control, dose response (AID 720588);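 also: potency for luminescence loss meaning cytotoxic compounds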).
`CCN1C/C(=C/c2ccc(N3CCOCC3)cc2)C(=O)/C(=C/c2ccc(N3CCOCC3)cc2)C1` was tested, and the AC35 was 9.96 µM. `COc1cc2c(OC(C)=O)c3c(c(-c4ccc5c(c4)OCO5)c2cc1OC)C(=O)OC3` gave an AC35 of 0.964 µM. `C[C@@H]1O[C@@H](O[C@@H]2C=C3CC[C@@H]4C(CC[C@]5(C)[C@@H](c6ccc(=O)oc6)CC[C@]45O)[C@@]3(C)CC2)[C@H](O)[C@H](O)[C@H]1O` (some centres not stated) showed an AC35 of under 0.011 µM. In the case of `O=C(C[C@H]1C[C@H]2c3cc(NS(=O)(=O)c4ccc(F)cc4)ccc3O[C@H]2[C@H](CO)O1)NCc1ccc(Oc2ccccc2)cc1`, the AC35 is reported as 16 µM. `Cc1cccc(/C=N/Nc2ccc3ccccc3n2)c1` showed an AC35 of 11.2 µM. With `C[C@]12CC[C@H](O)C[C@H]1CC[C@@H]1C2CC[C@]2(C)[C@@H](C3=CC(=O)OC3)[C@@H](O)C[C@]12O` (some centres not stated) the AC35 was 1.86 µM. With `C[C@@H]1CN([C@@H](C)CO)C(=O)Cc2cc(N(C)C)ccc2O[C@H]1CN(C)Cc1ccc(C(=O)Nc2ccccc2N)cc1` the AC35 was 7.46 µM. `COc1ccc([Si](C)(C)[C@H]2[C@H](CCO)O[C@@]3(C(=O)N(c4ccccc4)c4ccccc43)[C@@H]2C)cc1` gave an AC35 of 15 µM. With `C(=N\Nc1nc2ccccc2s1)/c1ccccn1` the AC35 was 3.56 µM. `CC(=O)OC1CC2(O)C3CCC4CC(O)CCC4(C)C3CCC2(C)C1C1=CC(=O)OC1` (configuration not stated) showed an AC35 of 0.262 µM. Compound `N#C[C@@H]1[C@H](c2ccc(C#Cc3ccccc3F)cc2)[C@@H](CO)N1C(=O)c1cccnc1` has an AC35 of 25.4 µM. `Cc1cc(C)c2sc(NNC(=O)c3ccc(S(=O)(=O)N4CCc5ccccc5C4)cc3)nc2c1` showed an AC35 of 5.13 µM. `CCN(Cc1ccccc1)c1ccc(/C=N/N=C(N)N)cc1` was tested, and the AC35 was 13.2 µM. Compound `COC(=O)C1=C(C)N(Cc2ccccc2C(F)(F)F)C(=NCc2ccc(OC)cc2)NC1c1ccc(C(F)(F)F)cc1` (configuration not stated) has an AC35 of 9.47 µM. With `N#CC(=C1C=CC(=NO)C(Cl)=C1)c1ccccc1` the AC35 was 11.2 µM. For `CC1(C)N=C(N)N=C(N)N1c1ccc(OCCCOc2ccccc2)c(Cl)c1`, the AC35 was 11.1 µM. For `COc1ccc(-c2cn(-c3ccc(OC)cc3)c3[n+]2-c2ccccc2CC3)cc1`, the AC35 was 7.06 µM. In the case of `O=c1c2ccccc2nc(/C=C/c2cc(Br)ccc2O)n1CCCO`, the AC35 is reported as 14.4 µM. In the case of `COC(=O)CC1(C(=O)OC)Oc2ccc(Br)cc2C(=O)N1c1cccc(Cl)c1Cl` (configuration not stated), the AC35 is reported as 13.1 µM. In the case of `C/C(=C\c1ccccc1)C(=O)N1CCC=CC1=O`, the AC35 is reported as 22.3 µM. Compound `COC(=O)Cc1[nH]n(-c2nc3ccccc3s2)c(=O)c1C(C)=Nc1ccc(OC)cc1` has an AC35 of 14 µM. Work on `CC1=NN(c2ccccc2)C(=O)/C1=C\C=C\c1ccccc1` yielded an AC35 of 19.6 µM. For `O=C(C[C@@H]1C[C@H]2c3cc(NS(=O)(=O)c4ccc(F)cc4)ccc3O[C@H]2[C@H](CO)O1)NCc1ccc(-c2ccccc2)cc1`, the AC35 was 18.7 µM. With `Cc1cc(-c2nc3cc(F)ccc3s2)ccc1N` the AC35 was 16.9 µM. `O=C1Nc2cc(C(=O)NCCN3CCCCCC3)ccc2S/C1=C\c1ccccc1` gave an AC35 of 11.7 µM. With `CC(C)CC#Cc1ccc([C@@H]2[C@@H](CO)N3CCCCN(S(=O)(=O)c4ccc(F)cc4)C[C@H]23)cc1` the AC35 was 16.1 µM. In the case of `CCOc1ccc(N=Nc2ccc(O)c3ncccc23)cc1`, the AC35 is reported as 13.4 µM. With `CN(Cc1cnc2nc(N)nc(N)c2n1)c1ccc(C(=O)N[C@@H](CCC(=O)O)C(=O)O)cc1` the AC35 was 0.0442 µM and 0.0275 µM. Work on `CN=c1scc(-c2cccs2)n1/N=C/c1ccccc1O` yielded an AC35 of 10.5 µM. Work on `CCCCC[C@H](C)N1C[C@H](COCc2ccccc2)Oc2cc(N3CC[C@@H](N(C)C)C3)ccc2S1(=O)=O` yielded an AC35 of 14.8 µM. Work on `COc1ccc(OC)c(-c2nnc3n2N=C(c2ccc(OC)c(OC4CCCC4)c2)CS3)c1` yielded an AC35 of 11.6 µM. For `C[C@@H]1CN([C@@H](C)CO)C(=O)c2cccc(N(C)C)c2O[C@@H]1CN(C)Cc1ccc(C(=O)Nc2ccccc2N)cc1`, the AC35 was 8.32 µM. Work on `O=c1ccc2ccccc2c2ccccc12` yielded an AC35 of 14.1 µM. `C[C@@H]1O[C@@H](O[C@H]2C[C@@H](O)[C@]3(CO)[C@H]4[C@H](O)C[C@]5(C)[C@@H](C6COC(=O)C6)CC[C@]5(O)[C@@H]4CC[C@]3(O)C2)[C@H](O)[C@H](O)[C@H]1O` (some centres not stated) gave an AC35 of 2.22 µM. `C[C@@H]1CN([C@@H](C)CO)S(=O)(=O)c2ccc(C#Cc3ccncc3)cc2O[C@H]1CN(C)S(=O)(=O)c1ccccc1` was tested, and the AC35 was 24.5 µM. Work on `N/C(=C\C(=O)c1cc(Cl)ccc1O)C(Cl)(Cl)Cl` yielded an AC35 of 14.7 µM. `O=c1[nH]c(=O)n([C@H]2C[C@H](O)[C@@H](CO)O2)cc1F` gave an AC35 of 5.28 µM. Compound `C[C@@H]1CN([C@@H](C)CO)C(=O)c2cc(NS(=O)(=O)c3ccc(Cl)cc3)ccc2O[C@@H]1CN(C)Cc1ccc(C(=O)Nc2ccccc2N)cc1` has an AC35 of 9.95 µM. `COc1cccc(-c2cc(NC=O)c3ncc(-c4ccc(C(C)=O)cc4)n3c2)c1` was tested, and the AC35 was 8.98 µM. With `O=c1cc(-c2ccccc2)oc2ccc3ccccc3c12` the AC35 was 1.57 µM. Work on `C(=NNc1ccc2ccccc2n1)c1ccccn1` yielded an AC35 of 1.62 µM. `Cc1ccccc1S(=O)(=O)N1CC[C@@H]2[C@@H](CO)Nc3ccc(-c4ccc(C#N)cc4)cc3[C@@H]21` was tested, and the AC35 was 14.8 µM. In the case of `COc1ccc(OC)c(-c2nnc3n2N=C(c2ccc(OC)c(OC4CCOC4)c2)CS3)c1` (configuration not stated), the AC35 is reported as 9.24 µM. In the case of `C[C@@H]1CN([C@@H](C)CO)C(=O)c2cc(N(C)C)ccc2O[C@H]1CN(C)Cc1ccc(C(=O)Nc2ccccc2N)cc1`, the AC35 is reported as 24.6 µM. `CC(=NNc1cc(C)c2ccccc2n1)c1ccccn1` showed an AC35 of 2 µM. For `COc1ccc(NC(=S)N=Nc2c(O)[nH]c3ccccc23)cc1`, the AC35 was 7.54 µM. `C[C@H](CO)N1C[C@H](C)[C@H](CN(C)Cc2ccc(C(=O)Nc3ccccc3N)cc2)Oc2ccc(NC(=O)C3CC3)cc2CC1=O` showed an AC35 of 3.6 µM. `COc1ccc(S(=O)(=O)Nc2ccc3c(c2)C(=O)N([C@H](C)CO)C[C@@H](C)[C@@H](CN(C)CC2CCCCC2)OCCCC[C@H](C)O3)cc1` was tested, and the AC35 was 14.1 µM. Work on `COC1C(O)C(C)OC(OC2C(Oc3cccc4c(O)c5c(=O)oc6ccc(C)c7c(=O)oc(c34)c5c67)OC(C)C(O)C2O)C1O` (configuration not stated) yielded an AC35 of 15.1 µM. `CO[C@H]1CN(C)C(=O)c2ccc(NC(=O)c3ccc(-c4ccccc4)cc3)cc2OC[C@H](C)NC[C@H]1C` gave an AC35 of 8.64 µM. `CN1c2ccc(-c3ccc(C#N)cc3)cc2[C@H]2[C@H](CCN2S(=O)(=O)c2cccc(F)c2)[C@H]1CO` was tested, and the AC35 was 13.4 µM. Compound `C[C@]12CC[C@H](O)C[C@H]1CC[C@@H]1[C@@H]2C[C@@H](O)[C@]2(C)[C@@H](C3=CC(=O)OC3)CC[C@]12O` has an AC35 of 1.16 µM. `C=C1C(=O)OC2C1CCC(C)C1C=CC(=O)C12C` (configuration not stated) was tested, and the AC35 was 8.71 µM. Compound `C(=N\Nc1ccc2ccccc2n1)/c1ccc2c(c1)OCCO2` has an AC35 of 10.4 µM. `NC1=CC(=O)C(=O)c2cccnc21` showed an AC35 of 20.7 µM. `O=c1c(Cl)cc(Cl)nn1-c1ccccc1` was tested, and the AC35 was 19.2 µM. `C[C@H]1CN([C@@H](C)CO)C(=O)c2cc(NS(=O)(=O)c3ccc(Cl)cc3)ccc2O[C@H]1CN(C)Cc1ccc(Cl)c(Cl)c1` showed an AC35 of 16.5 µM. Compound `C[C@H]1O[C@@H](O[C@H]2[C@@H](O)C[C@H](O[C@H]3[C@@H](O)C[C@H](O[C@H]4CC[C@@]5(C)[C@H](CC[C@@H]6[C@@H]5C[C@@H](O)[C@]5(C)[C@@H](C7=CC(=O)OC7)CC[C@]65O)C4)O[C@@H]3C)O[C@@H]2C)C[C@H](O)[C@@H]1O` has an AC35 of 0.0823 µM. `O=c1ccc2[n+]([O-])c3ccc(O)cc3oc-2c1` was tested, and the AC35 was 4.57 µM. `O=C(Sc1cccc2cccnc12)c1ccccc1Br` was tested, and the AC35 was 7.7 µM. `C[C@@H]1O[C@@H](O[C@H]2C[C@@H](O)[C@]3(CO)[C@@H]4C(CC[C@]3(O)C2)[C@@]2(O)CC[C@H](C3COC(=O)C3)[C@@]2(C)C[C@H]4O)[C@H](O)[C@H](O)[C@H]1O` (some centres not stated) showed an AC35 of 2.43 µM. Work on `C[C@@H]1CN([C@H](C)CO)S(=O)(=O)c2ccc(C#CC(C)(C)O)cc2O[C@H]1CN(C)Cc1ccc(-c2ccccc2)cc1` yielded an AC35 of 7.28 µM. `C[C@@H]1CN([C@@H](C)CO)C(=O)c2cccc(NS(=O)(=O)c3ccc(Cl)cc3)c2O[C@@H]1CN(C)Cc1ccc(C(=O)Nc2ccccc2N)cc1` showed an AC35 of 6.6 µM. Compound `Cc1cc2sc3ccc(C#CC4(O)CCCCC4)cc3c(=O)c2cc1C` has an AC35 of 18.4 µM. `C[C@H]1CN([C@@H](C)CO)S(=O)(=O)c2ccc(C#CC(C)(C)O)cc2O[C@@H]1CN(C)Cc1ccc(-c2ccccc2)cc1` was tested, and the AC35 was 3.6 µM. Compound `O=C1NC(=O)N(Cc2ccco2)C(=O)/C1=C/C=C/c1ccco1` has an AC35 of 13.7 µM. Work on `CCc1nc(N)nc(N)c1-c1ccc(Cl)cc1` yielded an AC35 of 15.9 µM. In the case of `COc1ccc(-c2cc(CNc3nc(NC(C)C)nc4cc(-c5ccccc5)sc34)on2)cc1`, the AC35 is reported as 12.5 µM. For `CC1(C)N=C(N)N=C(N)N1c1ccc(CCCCc2ccccc2)cc1`, the AC35 was 3.5 µM. For `COc1ccc(NC(=O)N2CCCCN3[C@@H](CO)[C@H](c4ccc(C5=CCCCC5)cc4)[C@@H]3C2)cc1`, the AC35 was 10 µM. In the case of `N#C[C@H]1[C@H](c2ccc(C#Cc3ccccc3F)cc2)[C@@H](CO)N1C(=O)C1CCCCC1`, the AC35 is reported as 13.2 µM. Work on `C=C(C(=O)c1ccccc1)C(C)C(=C)C(=O)c1ccccc1` yielded an AC35 of 5.24 µM. `C[C@@H]1CN([C@@H](C)CO)C(=O)c2cc(NC(=O)c3ccccc3)ccc2O[C@@H](C)CCCCO[C@H]1CN(C)C(=O)Nc1cccc2ccccc12` showed an AC35 of 0.637 µM. For `Nc1nc2cc3c(cc2cc1C(=O)NCCc1c[nH]c2ccccc12)OCO3`, the AC35 was 5.04 µM. Work on `C/C(=N\Nc1cccc2cccnc12)c1ccccn1` yielded an AC35 of 11.8 µM. In the case of `C=C1C(=O)C=C[C@]2(C)C[C@@H]3OC(=O)[C@](C)(O)[C@H]3C[C@@H]12`, the AC35 is reported as 8.77 µM. `Cc1ccc(S(=O)(=O)Nc2ccc3c(c2)C(=O)N([C@H](C)CO)C[C@H](C)[C@@H](CN(C)Cc2ccc(C(F)(F)F)cc2)OCCCC[C@H](C)O3)cc1` showed an AC35 of 8.51 µM. With `Nc1nc(N)c2cc(Sc3ccc4ccccc4c3)ccc2n1` the AC35 was 4.44 µM. With `Nc1nc(=S)c2ncn([C@@H]3O[C@H](CO)[C@@H](O)[C@H]3O)c2[nH]1` the AC35 was 7.33 µM. For `O=C(NC[C@@H]1N[C@@H](CO)[C@H]1c1ccc(C2=CCCCC2)cc1)c1cccc(F)c1`, the AC35 was 10.1 µM. Compound `Cc1cc(C(=O)Nc2ccc3c(c2)C(=O)N(C)[C@@H]2CC[C@@H](CC(=O)NCc4ccc(-c5ccccc5)cc4)O[C@H]2CO3)no1` has an AC35 of 24.5 µM. With `C[C@@H]1CN([C@@H](C)CO)C(=O)Cc2cc(NC(=O)Nc3ccc(C(F)(F)F)cc3)ccc2O[C@@H]1CN(C)Cc1ccc(C(=O)Nc2ccccc2N)cc1` the AC35 was 17.4 µM. In the case of `Cc1ccc(/C=N/Nc2ccc3ccccc3n2)o1`, the AC35 is reported as 15.5 µM. Compound `Cc1ccc(S(=O)(=O)Nc2ccc3c(c2)C(=O)N([C@@H](C)CO)C[C@H](C)[C@@H](CN(C)Cc2ccc(C(F)(F)F)cc2)OCCCC[C@@H](C)O3)cc1` has an AC35 of 12.8 µM. `CC(C)(C)C(=O)Cn1ncc(Cl)c(Cl)c1=O` was tested, and the AC35 was 14.8 µM. Compound `COc1cccc(-c2cccc(-c3nc(C(=O)NCC(F)(F)F)cc4c3[C@H](CCO)N([S@@](=O)C(C)(C)C)C4)c2)c1` has an AC35 of 23.5 µM. `COC(=O)c1ccccc1-c1c2ccc(=N)cc-2oc2cc(N)ccc12` showed an AC35 of 15.3 µM.
